In patent US8927601B2, “Uses of N-butylidenephthalide in treating a liver injury and improving liver function” (National Dong Hwa University, priority 2011, dated 2015):
Entries after “also recorded” stand apart in the source; their conditions may differ.

How the values were obtained:
[1] = system: TAA induced fibrotic livers; experiment: Thioacetamide (TAA)-induced chronic liver fibrosis rat model: gross examination and histopathology (H&E, Masson's trichrome, Metavir score); type: in vivo, Wistar rats
Method: (§1) 5 ml/kg of thioacetamide (TAA) was injected intraperitoneally into Wistar rats every three days for eight weeks to induce the liver damage. The therapy was performed starting from the fifth week during the thioacetamide induction. 80 mg/Kg/day or 500 mg/Kg/day of n-BP were orally administrated in experimental rats for four weeks.
(§2) To establish the chronic liver fibrosis model in rat, adult male Wistar rats (320±20 g) were used and were intraperitoneally injected with 200 mg/kg TAA (Sigma-Aldrich) once every 3 days for 8 weeks as the liver fibrosis model (78 rats). In the Normal group (24 rats), normal saline was used in place of the TAA. At the end of 4, 6, 8, and 10 weeks (i.e., day 28, 42, 56, and 70 respectively), these rats were sacrificed and cardiac blood samples were collected. These samples were analyzed with a biochemical analyzer (Integra 800; Roche, Holliston, Mass., USA) to measure the liver function index, which included glutamate oxaloacetate transaminase (GOT), glutamate pyruvate transaminase (GPT), serum albumin, total bilirubin and prothrombin time.
Afterwards, the histopathology of liver tissue samples obtained from the sacrificed rats were also analyzed. Liver tissue samples were fixed in 3.7% formaldehyde and then embedded in paraffin. Serial 3-μm sections of the embedded tissues were stained with hematoxylin and eosin or Masson's trichrome. Liver fibrosis is the excessive accumulation of collagen in liver, and therefore the accumulation of collagen is an important index for evaluating liver fibrosis. Masson's trichrome stain is frequently used to identify increases in collagenous tissue in fibrotic liver. For Masson's trichrome stain, sectioned samples were placed in Bouin's solution (Sigma-Aldrich) at 56° C. for 1 h and then were stained sequentially with the following solutions: Mayer's hematoxylin solution (Sigma-Aldrich) for 5 min, Biebrich scarlet-acid fuchsin solution (Sigma-Aldrich) for 15 min, phosphomolybdic acid-phosphotungstic acid (Sigma-Aldrich) for 15 min, and aniline blue (Sigma-Aldrich) for 5 min.
(§3) 78 rats with TAA induced fibrotic livers were randomly divided into 4 groups. For group 1 (TAA group), there were 24 rats which received no therapy. The remaining […] were divided into three groups: Control group, n-BP treated group I (BP 80 mg/kg group) and n-BP treated group II (BP 500 mg/kg group). For these three groups, from the beginning of week 5 to the end of week 8, olive oil, n-BP (80 mg/Kg/day), and n-BP (500 mg/Kg/day) were orally administrated once per day to the rats, wherein the dosage was 1 ml of olive oil per kilogram body weight (Control group), 1 ml of 80 mg/ml n-BP olive oil solution per kilogram body weight (BP 80 mg/kg group), and 1 ml of 500 mg/ml n-BP olive oil solution per kilogram of body weight (BP 500 mg/kg group), respectively. n-BP was purchased from Alfa Aesar®, cat. A10353.
(§4) At the end of 6, 8, and 10 weeks, rats of each group were sacrificed and cardiac blood samples were collected. These samples were analyzed with a biochemical analyzer (Integra 800; Roche, Holliston, Mass., USA) to measure the liver function index, which included glutamate oxaloacetate transaminase (GOT), glutamate pyruvate transaminase (GPT), serum albumin, and prothrombin time. Afterwards, the histopathology of liver tissue samples obtained from the sacrificed rats was also analyzed. Liver tissue samples were fixed in 3.7% formaldehyde and then embedded in paraffin. Serial 3-μm sections of the embedded tissues were stained with hematoxylin and eosin or Masson's trichrome as described above.

[2] = system: TAA induced fibrotic livers; experiment: Thioacetamide (TAA)-induced chronic liver fibrosis rat model: liver function index in blood (GOT, GPT, total bilirubin, albumin, prothrombin time); type: in vivo, Wistar rats
Method: as §1, §2, §3, §4

angina = settings: conscious rats; cited from earlier work
[3] = system: alcoholic-induced liver cirrhosis; settings: patients with alcoholic-induced liver cirrhosis; cited from earlier work
[4] = both n-BP treated groups, end of week 10

Row | Compound | gross examination of the liver ([1]; BP 80 mg/kg group (No. 73, 78) and BP 500 mg/kg group (No. 81, 87)) | inflammatory activity scores (Metavir) ([1]; n-BP 80 or 500 mg/Kg/day oral) | fibrosis grade (Metavir), Masson's trichrome staining ([1]; n-BP 80 or 500 mg/Kg/day oral, weeks 5-8, on 42, 56 and 70 days, control group grade 3-4) | fibrosis score versus control group (olive oil) ([1]; n-BP 80 or 500 mg/Kg/day oral, 42, 56 and 70 days) | collagen accumulation in liver (Masson's trichrome staining) ([1]; n-BP 80 or 500 mg/Kg/day oral, 42, 56 and 70 days (weeks 6, 8, 10)) | liver damage in hematoxylin and eosin stained sections ([1]; n-BP 80 or 500 mg/Kg/day oral, end of 8 weeks and 10 weeks) | inflammation and accumulation of collagen fibers (histopathological examinations) ([1]; therapy groups, n-BP 80 or 500 mg/Kg/day oral for four weeks) | serum total bilirubin level ([2]; both n-BP treated groups, end of week 6 (two weeks after treatments) continuing to end of week 10) | prothrombin time [2, 4] | serum GOT level [2, 4] | serum GPT level [2, 4] | serum total bilirubin level versus Control group [2, 4] | prothrombin time ([2]; both n-BP treated groups, from the end of week 6) | liver function index including GOT, GPT, albumin, total bilirubin and prothrombin time, versus control group ([2]; n-BP 80 or 500 mg/Kg/day oral for four weeks) | serum albumin level ([2]; n-BP treated groups, end of week 10) [g/dL] | albumin level ([2]; n-BP treated groups, ends of week 6 and week 8) | antianginal effect (angina) | effect on blood pressure or heart rate (angina) | mortality [3]
1 | CCCC=C1OC(=O)c2ccccc21 [n-BP, n-butylidenephthalide] | become even better like normal liver morphology | improvement in the recovery of the damaged liver occurs 2 weeks after n-BP treatment | 1-2 | lower | Collagen degradation was found; also recorded: almost no collagen accumulation | recovery from tissue degeneration and vacuolation was evident | significantly reduced | decline at the end of week 6 | decreased to approach that of the Normal group | decline to near-normal values | decline to near-normal values | significantly lower | decreases | significant recovery of liver damage | 4.35 ± 0.47 | rises | relieves angina | without affecting blood pressure or the heart rate | –
2 | CC(=O)CCCCn1c(=O)c2c(ncn2C)n(C)c1=O [Pentoxifylline] | – | – | – | – | – | – | – | – | – | – | – | – | – | – | – | – | – | – | significantly reduce the mortality
